Results reported in patent US20220339135A1, “COMPOSITIONS AND METHODS FOR MODULATING AN INFLAMMATORY RESPONSE” (Enzychem Lifesciences Corporation, priority 2019, published 2022).
Read-outs that look alike come from different tables or passages of the source.

How the values were obtained:
[1] = tested on: chemoradiation-induced oral mucositis
[2] = tested on: intracellular ROS in Raw264.7 cells; experiment: LPS-induced intracellular ROS production (CM-H2DCFDA); assay type: cell-based; details: LPS/PLAG treatment
Method: Raw264.7 cells were divided into two groups: 1) LPS treated group and 2) LPS/PLAG treated group. For LPS treated group, cells were stimulated with LPS (100 ng/ml) for 0, 15, 30, 45, 60, 75, 90, 105, 120 minutes. For LPS/PLAG treatment, cells were pre-incubated with PLAG (100 ng/ml) for 1 hour and then stimulated with LPS (100 ng/ml) for 0, 15, 30, 45, 60, 75, 90, 105, 120 minutes. To detect intracellular ROS, cells were treated with […]CM-H2DCFDA (Invitrogen, Carlsbad, Calif., USA) for 30 minutes before LPS treatment for LPS treated group and before PLAG treatment for LPS/PLAG treated group. For confocal microscopy analysis, cells were washed with PBS and mounted in DAPI-containing fluorescence microscopy mounting medium (Invitrogen). Samples were analyzed with a laser scanning confocal microscope (Carl Zeiss, Oberkochen, Germany).
Raw264.7 cells were divided into two groups: 1) LPS treated group and 2) LPS/PLAG treated group. For the LPS treated group, cells were treated with 100 μg/ml of DMSO (as solvent control) for 1 hour and treated with LPS (100 ng/ml) for 15, 30, 60, and 120 minutes. For LPS/PLAG treated group, cells were treated with PLAG (100 μg/ml) for 1 hour and treated with LPS (100 ng/ml) for 15, 30, 60, and 120 minutes. […] These were analyzed by confocal microscopy. […]

[3] = Whole-body autoradiography after single oral [14C] PLAG; assay type: in vivo, rats; details: 200 mg/kg oral
Method: Tissue distribution of the PLAG after single oral administration of [^14C] PLAG was conducted in Biotoxtech (Korea) using whole-body autoradiography. Crl:CD (SD) strain albino rats received the single oral administration of [^14C] PLAG at a dose of 200 mg/kg and the animals were sacrificed by CO2 asphyxiation at defined times, and whole body autoradiograms were prepared to investigate the tissue distribution of radioactivity and its time course. Sampling time points are 15 minutes, 1 hour, 8 hours, and 24 hours after administration. The carcass was sliced into 40 micro meter-thick coronal plane sections that were collected on adhesive tape (NA-70, Nakagawa). The freeze-dried sections covered with a protective membrane were placed in contact with imaging plate (BAS-SR2025, Fuji Photo Film) and the plates were exposed in lead-sealed boxes at room temperature for 24 hours. After exposure, the radioactivity recorded on the imaging plate was analyzed using a bio-imaging analyzer system.

[4] = tested on: chemo-radiation and scratch induced oral mucositis; experiment: Chemo-radiation and scratch induced oral mucositis; assay type: in vivo, mice; details: PLAG 250 mg/kg oral, n=7
Method: For radiation therapy, mice received 1 Gy of gamma radiation with mice whole body. Mice were intraperitoneally administered 5-FU (Sigma Aldrich) at 50 mg/kg. For facilitating the risk of infection, mice were anesthetized with 2,2,2-tribromoethanol (150 mg/kg, Sigma Aldrich) by intraperitoneal injection, and then tongue was scratched 0.2 cm wound on a third of side at using the tip of an 18-gauge needle with an equal force and depth. PLAG (Enzychem Lifesciences) was stored in −80° C. refrigerator and was administered orally once with 250 mg/kg. Formulations were aggressively mixed to be cloudiness and were injected within 10 minutes.
The tongue was scratched 0.2 cm wound on a third of side at using the tip of an 18-gauge needle with an equal force and depth on Day 0, 7, 10, and 16. Mice were received 1 Gy of gamma radiation on Day 2 and 5-FU was administered intraperitoneally in a dose of 50 mg/kg on Days 4. For the group receiving PLAG, 250 mg/kg of PLAG was administered orally once daily. To check the oral mucositis, mice were anesthetized with 2,2,2-tribromoethanol (150 mg/kg, Sigma Aldrich) by intraperitoneal injection on Day 7, 10, 14, 18. Each group contained seven mice.

skin erythema injury = experiment: Radiation-induced skin erythema in mice; assay type: in vivo; details: 8Gy TBI, PLAG 250 mg/kg daily 17 days
Method: 9 weeks Balb/c mice were divided into two groups: 1) radiated group (8Gy of TBI by γ-ray) and 2) PLAG (250 mg/kg of PLAG daily for 17 days) administrated group with radiation (8Gy of TBI) (FIG. 38A).

[5] = Day 9, ChemoRT + PLAG 250 mg/kg

CCCCC/C=C\C/C=C\CCCCCCCC(=O)OC(COC(C)=O)COC(=O)CCCCCCCCCCCCCCC (racemic) [PLAG, 1-palmitoyl-2-linoleoyl-3-acetylglycerol]
body weight Day 9 ([1]; ChemoRT + PLAG 100 mg/kg): 23.98 ± 2.80 g
oral mucosa epithelial thickness ([1]; ChemoRT + PLAG 100 mg/kg): 58.06±24.97 μm
ulceration area percentage ([1]; ChemoRT + PLAG 100 mg/kg): 29.32±5.40%
CXCL2 mRNA expression in tongues (relative band intensity) ([1]; ChemoRT + PLAG 250 mg/kg): 0.23±0.48 AU
IL-6 in tongue tissue extracts ([1]; ChemoRT + PLAG 250 mg/kg): 8.13 ± 1.19 pg/mg
IL-6 mRNA expression in tongues (relative band intensity) ([1]; ChemoRT + PLAG 250 mg/kg): 1.34±1.06 AU
MIP-2 in tongue tissue extracts ([1]; ChemoRT + PLAG 250 mg/kg): 2.69 ± 0.38 pg/mg
body weight Day 9 ([1]; ChemoRT + PLAG 250 mg/kg): 26.46 ± 1.68 g
oral mucosa epithelial thickness ([1]; ChemoRT + PLAG 250 mg/kg): 85.81±12.24 μm
ulceration area percentage ([1]; ChemoRT + PLAG 250 mg/kg): 1.45±2.36%
P-MLKL relative band intensity in tongue lysates ([1]; ChemoRT+PLAG): 3.67±2.56 AU
P-RIPK1 relative band intensity in tongue lysates ([1]; ChemoRT+PLAG): 0.61±0.45 AU
P-RIPK3 relative band intensity in tongue lysates ([1]; ChemoRT+PLAG): 1.27±0.83 AU
body weight Day 0 ([1]; ChemoRT+PLAG): 25.78 ± 1.04 g
neutrophil infiltration in the tongues (IHC NIMP-R14) ([1]; ChemoRT+PLAG): not observed
serum IL-6 [1, 5]: 205.75 ± 30.41 pg/mL
serum MIP-2 [1, 5]: 4.42 ± 4.04 pg/mL
HMGB1 localization in tongue (IHC) ([1]; PLAG-treated mice): remained in the nucleus
body weight Day 9 ([1]; mouse, in vivo): 25.66 ± 0.70 g
ROS production initiated [2]: 15 min
return to homeostatic levels of intracellular ROS [2]: 60 min
radioactivity in stomach and intestinal tract incl. luminal contents ([3]; 15 minutes to 1 hour): high levels
radioactivity in the liver and brown fat tissues ([3]; 8 hours): Moderate levels
radioactivity in the luminal side of the stomach ([3]; 8 hours): high levels
radioactivity in the liver ([3]; 24 hours): low levels
radioactivity in other tissues ([3]; any sampling time point): not different from background level
radioactivity in the liver ([3]; up to 1 hour): Low levels
survival rate after 18 days [4]: 85%
erythema on mouse foot and tail (skin erythema injury): significantly weak or no erythema
